Assay: wn = mass fraction of the nth substance listed
Details: 101 kPa, Liquid; for viscosity: Capillary tube (Ostwald / Ubbelohde) method; for mass density: Pycnometric method

O=[N+]([O-])[O-].[Li+] [lithium nitrate] + O
Details	mass density [kg/m3]	viscosity [mPa·s]
283.15 K, w1 = 0.3	1203	2.41
293.15 K, w1 = 0.3	1199	1.902
293.15 K, w1 = 0.35	1236	2.241
293.15 K, w1 = 0.4	1274	2.791
303.15 K, w1 = 0.3	1193	1.535
303.15 K, w1 = 0.35	1231	1.85
303.15 K, w1 = 0.4	1269	2.24
303.15 K, w1 = 0.45	1314	2.87
303.15 K, w1 = 0.5	1358	3.839
303.15 K, w1 = 0.55	1405	5.357
313.15 K, w1 = 0.3	1188	1.3
313.15 K, w1 = 0.35	1225	1.552
313.15 K, w1 = 0.4	1263	1.888
313.15 K, w1 = 0.45	1307	2.363
313.15 K, w1 = 0.5	1352	3.114
313.15 K, w1 = 0.55	1398	4.299
313.15 K, w1 = 0.6	1449	6.274
323.15 K, w1 = 0.3	1179	1.112
323.15 K, w1 = 0.35	1216	1.306
323.15 K, w1 = 0.4	1257	1.58
323.15 K, w1 = 0.45	1300	1.994
323.15 K, w1 = 0.5	1346	2.543
323.15 K, w1 = 0.55	1391	3.515
323.15 K, w1 = 0.6	1440	4.961
333.15 K, w1 = 0.3	1173	0.95
333.15 K, w1 = 0.35	1210	1.134
333.15 K, w1 = 0.4	1250	1.356
333.15 K, w1 = 0.45	1293	1.7
333.15 K, w1 = 0.5	1339	2.143
333.15 K, w1 = 0.55	1384	2.926
333.15 K, w1 = 0.6	1432	4.153
333.15 K, w1 = 0.65	1494	5.721
343.15 K, w1 = 0.3	1166	0.826
343.15 K, w1 = 0.35	1203	0.985
343.15 K, w1 = 0.4	1243	1.182
343.15 K, w1 = 0.45	1286	1.479
343.15 K, w1 = 0.5	1331	1.854
343.15 K, w1 = 0.55	1376	2.493
343.15 K, w1 = 0.6	1424	3.472
343.15 K, w1 = 0.65	1486	4.764
353.15 K, w1 = 0.3	1159	0.731
353.15 K, w1 = 0.35	1196	0.864
353.15 K, w1 = 0.4	1236	1.041
353.15 K, w1 = 0.45	1279	1.302
353.15 K, w1 = 0.5	1324	1.616
353.15 K, w1 = 0.55	1369	2.158
353.15 K, w1 = 0.6	1416	2.955
353.15 K, w1 = 0.65	1479	4.02
363.15 K, w1 = 0.3	1152	0.65
363.15 K, w1 = 0.35	1189	0.773
363.15 K, w1 = 0.4	1230	0.927
363.15 K, w1 = 0.45	1272	1.149
363.15 K, w1 = 0.5	1317	1.466
363.15 K, w1 = 0.55	1361	1.882
363.15 K, w1 = 0.6	1408	2.564
363.15 K, w1 = 0.65	1472	3.394
373.15 K, w1 = 0.3	1144	0.586
373.15 K, w1 = 0.35	1181	0.7
373.15 K, w1 = 0.4	1222	0.837
373.15 K, w1 = 0.45	1265	1.034
373.15 K, w1 = 0.5	1309	1.306
373.15 K, w1 = 0.55	1353	1.693
373.15 K, w1 = 0.6	1400	2.248
373.15 K, w1 = 0.65	1464	2.953
383.15 K, w1 = 0.4	1213	0.763
383.15 K, w1 = 0.45	1258	0.938
383.15 K, w1 = 0.5	1301	1.175
383.15 K, w1 = 0.55	1346	1.505
383.15 K, w1 = 0.6	1393	1.993
383.15 K, w1 = 0.65	1456	2.615
393.15 K, w1 = 0.5	1294	–
393.15 K, w1 = 0.55	1338	1.371
393.15 K, w1 = 0.6	1385	1.785
393.15 K, w1 = 0.65	1448	2.307
403.15 K, w1 = 0.6	1377	1.625
403.15 K, w1 = 0.65	1440	2.095
413.15 K, w1 = 0.65	1430	1.923
